Several values for one entry are separate records, joined by “and”; a condition that tells them apart may be missing. Identical values can stand only once. Toxic doses and inconclusive results are not listed. How the source made its calls: active means survival T/C of 150% or more; inactive means T/C below 125% in these data.
System: P388 leukemia ip, CD2F1 mice, survival T/C
Assay: NCI In Vivo Anticancer Drug Screen. Data for tumor model P388 Leukemia (intraperitoneal) in CD2F1 (CDF1) mice
Conditions: endpoint: median survival time, higher = longer survival
Method in brief: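 Mice carrying the transplanted tumor received test compound or vehicle. Survival was recorded in each group, and the value is the treated-group measurement divided by that of the vehicle-treated control group.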

[1] = dose: 50.0 mg/kg/injection, schedule: Q01DX009 (ip), vehicle: saline
[2] = dose: 100.0 mg/kg/injection, schedule: Q01DX009 (ip), vehicle: saline
[3] = dose: 200.0 mg/kg/injection, schedule: Q01DX009 (ip), vehicle: saline
[4] = dose: 25.0 mg/kg/injection, schedule: Q01DX009 (ip), vehicle: saline with Tween-80
[5] = dose: 50.0 mg/kg/injection, schedule: Q01DX009 (ip), vehicle: saline with Tween-80
[6] = dose: 100.0 mg/kg/injection, schedule: Q01DX009 (ip), vehicle: saline with Tween-80

Measured: T/C

CCCCC[CH2][Ge]([CH2]CCCCC)([CH2]CCCCC)[O]C(C)=O
inactive: dose: 50.0 mg/kg/injection, schedule: Q01DX001 (ip), vehicle: Klucel (hydroxypropylcellulose) (HPC) 100 % of control and 107 % of control | dose: 100.0 mg/kg/injection, schedule: Q01DX001 (ip), vehicle: Klucel (hydroxypropylcellulose) (HPC) 101 % of control and 106 % of control | dose: 200.0 mg/kg/injection, schedule: Q01DX001 (ip), vehicle: Klucel (hydroxypropylcellulose) (HPC) 104 % of control and 115 % of control | dose: 400.0 mg/kg/injection, schedule: Q01DX001 (ip), vehicle: Klucel (hydroxypropylcellulose) (HPC) 120 % of control

CC(=O)Nc1cc(C)ns1
inactive: dose: 25.0 mg/kg/injection, schedule: Q01DX009 (ip), vehicle: saline 101 % of control | [1] 109 % of control | [2] 101 % of control | [3] 89 % of control

CCC(C)C(NC(=O)OCc1ccccc1)C(=O)ON1C(=O)CCC1=O (centres undefined)
inactive: dose: 66.0 mg/kg/injection, schedule: Q04DX003 (ip), vehicle: saline with Tween-80 100 % of control | dose: 100.0 mg/kg/injection, schedule: Q04DX003 (ip), vehicle: saline with Tween-80 104 % of control | dose: 150.0 mg/kg/injection, schedule: Q04DX003 (ip), vehicle: saline with Tween-80 109 % of control

CCC(N)Cc1cc(OC)c(C)cc1OC (centres undefined)
inactive: [4] 90 % of control | [5] 98 % of control and 99 % of control | [6] 103 % of control

COC(=O)[C@@]12OC[C@]34[C@H]([C@@H](O)[C@@H]1O)[C@@]1(C)CC(=O)C(O)=C(C)[C@@H]1C[C@H]3OC(=O)[C@H](OC(=O)C(Cc1ccccc1)NC(=O)OC(C)(C)C)[C@@H]24 (some centres undefined)
inactive: dose: 125.0 micrograms/kg/injection, schedule: Q01DX005 (ip), vehicle: Klucel (hydroxypropylcellulose) (HPC) 113 % of control | dose: 250.0 micrograms/kg/injection, schedule: Q01DX005 (ip), vehicle: Klucel (hydroxypropylcellulose) (HPC) 100 % of control | dose: 500.0 micrograms/kg/injection, schedule: Q01DX005 (ip), vehicle: Klucel (hydroxypropylcellulose) (HPC) 116 % of control | dose: 1000.0 micrograms/kg/injection, schedule: Q01DX005 (ip), vehicle: Klucel (hydroxypropylcellulose) (HPC) 114 % of control

CN1CC[N+](C)=C1c1nc2ccccc2n1C
inactive: dose: 12.5 mg/kg/injection, schedule: Q01DX009 (ip), vehicle: suspension in saline 105 % of control | dose: 25.0 mg/kg/injection, schedule: Q01DX009 (ip), vehicle: suspension in saline 117 % of control | dose: 50.0 mg/kg/injection, schedule: Q01DX009 (ip), vehicle: suspension in saline 118 % of control

[O-][n+]1c(CCl)nc2ccccc2c1-c1ccccc1F
inactive: dose: 12.5 mg/kg/injection, schedule: Q01DX009 (ip), vehicle: saline with Tween-80 103 % of control | [4] 103 % of control | [5] 103 % of control

CC1=NN(c2ccc(S(=O)(=O)O)cc2)C(=O)C1N=Nc1ccc(-c2ccc(N=Nc3ccc(OS(=O)(=O)c4ccc(C)cc4)cc3)c(S(=O)(=O)O)c2)cc1 (centres undefined)
inactive: [1] 100 % of control | [2] 100 % of control | [3] 97 % of control

CCCCC1CC=CC(NC#N)=N1 (centres undefined)
inactive: [5] 100 % of control | [6] 104 % of control | dose: 200.0 mg/kg/injection, schedule: Q01DX009 (ip), vehicle: saline with Tween-80 115 % of control

CSC(=O)NCCCN(C)C
inactive: dose: 50.0 mg/kg/injection, schedule: Q01DX005 (ip), vehicle: saline 106 % of control | dose: 100.0 mg/kg/injection, schedule: Q01DX005 (ip), vehicle: saline 107 % of control | dose: 200.0 mg/kg/injection, schedule: Q01DX005 (ip), vehicle: saline 104 % of control

COc1ccc2[nH]cc(/C=C(/C)c3ccncc3)c2c1
inactive: dose: 100.0 mg/kg/injection, schedule: Q01DX001 (ip), vehicle: saline with Tween-80 102 % of control | dose: 200.0 mg/kg/injection, schedule: Q01DX001 (ip), vehicle: saline with Tween-80 108 % of control | dose: 400.0 mg/kg/injection, schedule: Q01DX001 (ip), vehicle: saline with Tween-80 108 % of control

COc1cc(N(C)c2cc(=O)n(C)c(=O)[nH]2)ccc1C
inactive: dose: 12.5 mg/kg/injection, schedule: Q01DX005 (ip), vehicle: saline with Tween-80 101 % of control | dose: 25.0 mg/kg/injection, schedule: Q01DX005 (ip), vehicle: saline with Tween-80 101 % of control | dose: 50.0 mg/kg/injection, schedule: Q01DX005 (ip), vehicle: saline with Tween-80 100 % of control and 94 % of control

— PubChem BioAssay AID330 (DTP/NCI, 2004)
